PMC3928794 (Chemistry & biodiversity, 2013)
Where two headings read alike, the source gives them in different places.

What was measured:
Assay type in all cases: cell-based
[1] = system: H522 lung cancer cell line; assay: Antiproliferative bioassay, H522 lung cancer cell line
[2] = system: A2780 human ovarian cancer cell line; assay: Antiproliferative bioassay, A2780 ovarian cancer cell line; settings: for IC50: read-out: IC50 (μM) A2780, A2780 ovarian cancer cells, mean of three replicates
[3] = system: A2058 melanoma cell line; assay: Antiproliferative bioassay, A2058 melanoma cell line
[4] = read-out: IC50 (μM) H522, H522 lung cancer cells

| IC50 [1, 4] | IC50 [2] | IC50 ([1]; Homo sapiens, NCI-H522, read-out: IC50 (μM) H522) | IC50 ([3]; Homo sapiens, A2058, read-out: IC50 (μM) A2058) | IC50 ([3]; read-out: IC50 (μM) A2058, A2058 melanoma cells) | Compound | inhibition of the proliferation of A2780 cells (in words) [2] |
| --- | --- | --- | --- | --- | --- | --- |
| > 10 µM | 1.7 ± 0.1 µM | – | – | – | oleanolic acid-3-O-β-D-glucopyranosyl-(1→3)-(2″-O-acetyl)-β-D-glucopyranoside [Compound 2] | selectively inhibit the proliferation of A2780 ovarian cancer cells |
| > 10 µM | 1.2 ± 0.3 µM | – | – | – | CC(=O)OC[C@H]1O[C@@H](O[C@H]2CC[C@]3(C)[C@H]4CC=C5[C@@H]6CC(C)(C)CC[C@]6(C(=O)O)CC[C@@]5(C)[C@]4(C)CC[C@H]3C2(C)C)[C@H](O)[C@@H](O[C@@H]2O[C@H](CO)[C@@H](O)[C@H](O)[C@H]2O)[C@@H]1O [Compound 3, oleanolic acid-3-O-β-D-glucopyranosyl-(1→3)-(6″-O-acetyl)-β-D-glucopyranoside] | selectively inhibit the proliferation of A2780 ovarian cancer cells |
| – | – | 0.009 µM | 0.004 µM | – | CC[C@]1(O)C[C@@H]2CN(CCc3c([nH]c4ccccc34)[C@@](C(=O)OC)(c3cc4c(cc3OC)N(C)[C@H]3[C@@](O)(C(=O)OC)[C@H](OC(C)=O)[C@]5(CC)C=CCN6CC[C@]43[C@@H]65)C2)C1 [Vinblastine, reference compound] | – |
| 7.32 µM | 2.2 ± 0.2 µM | – | – | 7.63 µM | oleanolic acid-3-O-β-D-glucopyranosyl- (1→3)-β-D-glucopyranoside [Compound 1] | – |
